{
  "source": "patent US11315685B2",
  "about": "“Method and system for predicting optimal epilepsy treatment regimes” (UCB BIOPHARMA SPRL, priority 2017, dated 2022)",
  "data": [
    {"tested_on": "epilepsy patients", "test": "treatment stability of AED monotherapy in the one year evaluation period (medical claims data)", "assay_type": "in vivo", "settings": "percentage of patients for which the treatment worked based on the clinician's recommendation; stable = monotherapy for at least 80% of the one year evaluation period without switching; adult epilepsy patients", "text": "Step 18 may also include a substep 18e of filtering patients according to a defined target variable indicating AED treatment regime efficacy. In some preferred embodiments, the target variable is treatment stability. An aim of the present disclosure is to measure the efficacy of treatment regimens consisting of one or more AEDs. One way of measuring the efficacy of treatment would be to monitor the patient's progress with respect to seizure frequency before and after treatment. A reduction in the number of seizures would imply that the regimen is effective. […] Accordingly, method 10 defines a proxy for treatment effectiveness. Based on input from domain experts and clinicians, method 10 uses treatment stability as an indicator of the effectiveness of a particular treatment. In some preferred embodiments, a treatment regimen is considered stable for a patient if the patient satisfies a treatment change criteria and a minimum coverage criteria. […] The minimum coverage criteria is satisfied if the patient complies with the treatment regimen which has been prescribed for at least a predetermined percentage of the evaluation period. In one preferred embodiment, the minimum coverage criteria is satisfied if the patient complies with the treatment regimen which has been prescribed for at least 80% evaluation period.\nIf the MPR is greater than 80%, the patient can be determined to be stable for that drug.\nFor the unstable outcome, a treatment change occurs during the evaluation period—i.e., within […] the index date at which a first treatment regimen R1 is prescribed—in the form of a second treatment regimen R2. For the stable outcome, a treatment change—i.e., the second regimen R2—occurs after the evaluation period.\nIn this embodiment, for simplicity, the three aforementioned treatment categories—i.e., ADD, SWITCH and NEW—are not differentiated between when defining the index date and, in contrast to the technique in Devinsky et al., all medication claims for a patient in the baseline period before the AED-specific index date are used to train the AED-specific predictive model for the patient. In other embodiments, the treatment categories can be analyzed separately to assess the efficacy of a treatment regimen in different scenarios. In this embodiment, predictive models are built only for monotherapies, instead of for both monotherapies and combination therapies. For a particular AED, all the adult patients who have been prescribed the AED, have at least 1 year of medical history before the prescription and have at least one year of evaluation period after prescription are analyzed. As mentioned above, this subset of patients constitutes the cohort for the predictive model for the AED being analyzed and the target variable is treatment stability.\nThe control patients refer to the number of patients which switched to treatments other than the one being analyzed in the evaluation window and were considered unstable on that treatment regimen. The percentage baseline success rate refers to the percentage of patients for which the treatment worked based on the clinician's recommendation. The AUC refers to the area under the ROC curve or the C-statistic which is the ratio of the true positive rate (TPR) and the false positive rate (FPR) for different values of the threshold. This ratio reflects the performance of the model since a higher AUC would imply that higher TPR was achieved and more true positives were obtained than false positives.", "values": [
      {"smiles": "NC(=O)N1c2ccccc2C=Cc2ccccc21", "note": "[CARBAMAZEPINE]", "Percentage Baseline Success Rate": 54.76},
      {"smiles": "O=C1CN=C(c2ccccc2Cl)c2cc([N+](=O)[O-])ccc2N1", "note": "[CLONAZEPAM, Clonazepam]", "Percentage Baseline Success Rate": 30.98},
      {"smiles": "CN1C(=O)CN=C(c2ccccc2)c2cc(Cl)ccc21", "note": "[DIAZEPAM, Diazepam]", "Percentage Baseline Success Rate": 25.22},
      {"smiles": "NCC1(CC(=O)O)CCCCC1", "note": "[GABAPENTIN, Gabapentin]", "Percentage Baseline Success Rate": 35.69},
      {"smiles": "COC[C@@H](NC(C)=O)C(=O)NCc1ccccc1", "note": "[LACOSAMIDE, Lacosamide]", "Percentage Baseline Success Rate": 37.73},
      {"smiles": "Nc1nnc(-c2cccc(Cl)c2Cl)c(N)n1", "note": "[LAMOTRIGINE, Lamotrigine]", "Percentage Baseline Success Rate": 53.32},
      {"smiles": "CC[C@@H](C(N)=O)N1CCCC1=O", "note": "[LEVETIRACETAM, Levetiracetam]", "Percentage Baseline Success Rate": 54.99},
      {"smiles": "O=C1Nc2ccc(Cl)cc2C(c2ccccc2Cl)=NC1O", "note": "(stereo not drawn) [LORAZEPAM, Lorazepam]", "Percentage Baseline Success Rate": 25.28},
      {"smiles": "NC(=O)N1c2ccccc2CC(=O)c2ccccc21", "note": "[OXCARBAZEPINE, Oxcarbazepine]", "Percentage Baseline Success Rate": 52.83},
      {"smiles": "CCC1(c2ccccc2)C(=O)NC(=O)NC1=O", "note": "[PHENOBARBITAL, Phenobarbital]", "Percentage Baseline Success Rate": 55.76},
      {"smiles": "O=C1NC(=O)C(c2ccccc2)(c2ccccc2)N1", "note": "[PHENYTOIN, Phenytoin]", "Percentage Baseline Success Rate": 45.01},
      {"smiles": "CC(C)C[C@H](CN)CC(=O)O", "note": "[PREGABALIN, Pregabalin]", "Percentage Baseline Success Rate": 28.60},
      {"smiles": "CCC1(c2ccccc2)C(=O)NCNC1=O", "note": "[PRIMIDONE, Primidone]", "Percentage Baseline Success Rate": 48.94},
      {"smiles": "CC1(C)O[C@@H]2[C@@H](CO[C@@]3(COS(N)(=O)=O)OC(C)(C)O[C@@H]23)O1", "note": "[TOPIRAMATE, Topiramate]", "Percentage Baseline Success Rate": 38.97},
      {"smiles": "NS(=O)(=O)Cc1noc2ccccc12", "note": "[ZONISAMIDE, Zonisamide]", "Percentage Baseline Success Rate": 42.95}
    ]}
  ]
}
